Experimental data published in PubChem BioAssay (NCI).
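Five compound concentrations were applied to cells in 96-well plates for 48 hours; endpoints were derived by simple linear interpolation of the resulting dose-response curve. GI50 is the concentration that inhibits growth by half. Definition used: TGI = concentration required for complete inhibition of growth.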

How the values were obtained:
Assay in all cases: DTP human tumour cell line panel, 48 h
SF-539 CNS = system: SF-539 CNS
LOX IMVI melanoma = system: LOX IMVI melanoma
HOP-92 NSCLC = system: HOP-92 NSCLC
SNB-78 CNS = system: SNB-78 CNS
K-562 leukemia = system: K-562 leukemia
RXF 393 renal = system: RXF 393 renal
DLD-1 colon = system: DLD-1 colon
SK-MEL-28 melanoma = system: SK-MEL-28 melanoma
SN12C renal = system: SN12C renal
U251 CNS = system: U251 CNS

Work on C[N+](C)(C)CC1CCCC/C1=N\O (configuration not stated) yielded a TGI (SF-539 CNS) of over 100 µM, a TGI (LOX IMVI melanoma) of over 100 µM and a TGI (HOP-92 NSCLC) of over 100 µM. For the same compound, the TGI (SNB-78 CNS) was over 100 µM, the TGI (K-562 leukemia) was over 100 µM and the TGI (RXF 393 renal) was over 100 µM. It also gave a TGI (DLD-1 colon) of over 100 µM, a TGI (SK-MEL-28 melanoma) of over 100 µM and a TGI (SN12C renal) of over 100 µM. The TGI (U251 CNS) was over 100 µM.
Work on O=C(/C(=C/c1ccccc1)c1ccccc1)N1c2ccccc2CC1c1c[nH]c2ccccc12 (configuration not stated) yielded a TGI (SF-539 CNS) of over 100 µM, a TGI (LOX IMVI melanoma) of over 100 µM and a TGI (HOP-92 NSCLC) of over 100 µM. The TGI (SNB-78 CNS) was over 100 µM, the TGI (K-562 leukemia) was over 100 µM and the TGI (RXF 393 renal) was over 100 µM. The TGI (DLD-1 colon) was over 100 µM, the TGI (SK-MEL-28 melanoma) was over 100 µM and the TGI (SN12C renal) was over 100 µM. For the same compound, the TGI (U251 CNS) was over 100 µM.
C#CCN(C)C(=O)N(CC#C)N=O gave a TGI (SF-539 CNS) of over 100 µM, a TGI (LOX IMVI melanoma) of over 100 µM and a TGI (HOP-92 NSCLC) of over 100 µM. The TGI (SNB-78 CNS) was over 100 µM, the TGI (K-562 leukemia) was over 100 µM and the TGI (RXF 393 renal) was over 100 µM. The TGI (DLD-1 colon) was over 100 µM, the TGI (SK-MEL-28 melanoma) was over 100 µM and the TGI (SN12C renal) was over 100 µM. It also gave a TGI (U251 CNS) of over 100 µM.
COc1ccc2nc3cccc(C(=O)NCCN(C)C)c3nc2c1 gave a TGI (SF-539 CNS) of 8.8 µM, a TGI (LOX IMVI melanoma) of 2.45 µM and a TGI (HOP-92 NSCLC) of over 100 µM. For the same compound, the TGI (SNB-78 CNS) was 9.01 µM, the TGI (K-562 leukemia) was 6.94 µM and the TGI (RXF 393 renal) was 3.21 µM. It also gave a TGI (DLD-1 colon) of 5.12 µM, a TGI (SK-MEL-28 melanoma) of 4.88 µM and a TGI (SN12C renal) of 4.93 µM. For the same compound, the TGI (U251 CNS) was 11.3 µM.
For COc1cc(C2c3cc4c(cc3[C@@H](Nc3ccc(N)cc3)C3COC(=O)[C@H]23)OCO4)cc(OC)c1O (some centres not stated), the GI50 (SF-539 CNS) was 0.729 µM, the TGI (SF-539 CNS) was 6.51 µM and the TGI (LOX IMVI melanoma) was 6.48 µM. The GI50 (HOP-92 NSCLC) was 0.495 µM, the TGI (SNB-78 CNS) was 60.5 µM and the TGI (K-562 leukemia) was 46.3 µM. The TGI (RXF 393 renal) was 13.2 µM, the TGI (DLD-1 colon) was 22.2 µM and the TGI (SK-MEL-28 melanoma) was 33.9 µM. For the same compound, the GI50 (SN12C renal) was 0.492 µM, the TGI (SN12C renal) was 6.15 µM and the TGI (U251 CNS) was 4.2 µM.
For NCP(=O)(O)OCC(=O)O, the TGI (SF-539 CNS) was over 100 µM, the TGI (LOX IMVI melanoma) was over 100 µM and the TGI (HOP-92 NSCLC) was over 100 µM. It also gave a TGI (SNB-78 CNS) of over 100 µM, a TGI (K-562 leukemia) of over 100 µM and a TGI (RXF 393 renal) of over 100 µM. It also gave a TGI (DLD-1 colon) of over 100 µM, a TGI (SK-MEL-28 melanoma) of over 100 µM and a TGI (SN12C renal) of over 100 µM. For the same compound, the TGI (U251 CNS) was over 100 µM.
Work on NS(=O)(=O)c1ccc(NC(=O)COC(=O)c2cccc3c(=O)c4ccccc4[nH]c23)cc1 yielded a TGI (SF-539 CNS) of 32.7 µM, a TGI (LOX IMVI melanoma) of 43 µM and a TGI (HOP-92 NSCLC) of 38.6 µM. It also gave a TGI (SNB-78 CNS) of 44.5 µM, a TGI (K-562 leukemia) of over 100 µM and a TGI (RXF 393 renal) of 42.3 µM. It also gave a TGI (DLD-1 colon) of over 100 µM, a TGI (SK-MEL-28 melanoma) of over 100 µM and a TGI (SN12C renal) of 90 µM. For the same compound, the TGI (U251 CNS) was 28.1 µM.
Cn1cc(NC(=O)c2cc(NC(=O)CCCCCCC(=O)Nc3cc(C(=O)Nc4cc(C(=O)NCCC(=N)N)n(C)c4)n(C)c3)cn2C)cc1C(=O)NCCC(=N)N was tested, and the TGI (SF-539 CNS) was 31 µM, the TGI (LOX IMVI melanoma) was 18.5 µM and the TGI (HOP-92 NSCLC) was over 100 µM. For the same compound, the TGI (SNB-78 CNS) was 69.5 µM, the TGI (K-562 leukemia) was over 100 µM and the TGI (RXF 393 renal) was 31.4 µM. For the same compound, the TGI (DLD-1 colon) was over 100 µM, the TGI (SK-MEL-28 melanoma) was 16.9 µM and the TGI (SN12C renal) was 33.1 µM. For the same compound, the TGI (U251 CNS) was 68.8 µM.
Compound CC1=C(C(=O)Nc2ccccc2)C(c2ccc(C(C)C)cc2)C(C(=O)Nc2ccccc2)=C(C)N1 has a TGI (SF-539 CNS) of 17.6 µM, a TGI (LOX IMVI melanoma) of 30.4 µM and a TGI (HOP-92 NSCLC) of 32.5 µM. It also gave a TGI (SNB-78 CNS) of over 100 µM, a TGI (K-562 leukemia) of 54.9 µM and a TGI (RXF 393 renal) of 27.6 µM. The TGI (DLD-1 colon) was over 100 µM, the TGI (SK-MEL-28 melanoma) was over 63.7 µM and the TGI (SN12C renal) was 27.8 µM. The TGI (U251 CNS) was 45.1 µM.
Nc1ccc(C(=O)N/C(=C\c2cccc([N+](=O)[O-])c2)c2nc3c4c(ccc3[nH]2)C(=O)c2ccccc2C4=O)cc1 gave a TGI (SF-539 CNS) of over 100 µM, a TGI (LOX IMVI melanoma) of over 100 µM and a TGI (HOP-92 NSCLC) of 93.4 µM. The TGI (SNB-78 CNS) was over 100 µM, the TGI (K-562 leukemia) was over 100 µM and the TGI (RXF 393 renal) was 57.7 µM. It also gave a TGI (DLD-1 colon) of over 100 µM, a TGI (SK-MEL-28 melanoma) of over 100 µM and a TGI (SN12C renal) of over 100 µM. It also gave a TGI (U251 CNS) of over 100 µM.
